Data on one compound can be found in patent US10221160B2, “Metalloenzyme inhibitor compounds” (Mycovia Pharmaceuticals, Inc., priority 2012, dated 2019).

Where two headings read alike, the source gives them in different places.

The test system of one assay is C. albicans. The assay is described as follows: Minimum Inhibitory Concentration (MIC), CLSI M27-A2. As to conditions: Candida albicans. Format: cell-based. How it is done:
A. Minimum Inhibitory Concentration (MIC) Compounds were assessed for their ability to inhibit the growth of common strains of fungus, C. albicans using a standardized procedure (CLSI M27-A2). Stock solutions of the test compounds and standards were prepared in DMSO at 1,600 μg/mL (C. albicans). Eleven, serial, one-half dilutions of compounds were prepared in 96-well plates in RPMI+MOPS. The assay concentration ranges were 8-0.001 μg/mL (C. albicans). Cell suspensions of C. albicans were prepared and added to each well at concentrations of approximately 3.7×10^3 colony-forming-units per milliliter (cfu/mL). All testing was in duplicate. The inoculated plates were incubated for approximately 48 h at 35±1° C. At the completion of incubation the wells of each plate were evaluated visually for the presence of fungal growth. […] For QC purposes C. krusei isolate ATCC 6258 (4.0×10^3 cfu/mL) was included in the VOR assay.

A further assay addresses CYP3A4 (Homo sapiens (Human), UniProt P08684). Kind of assay: Inhibition of liver cytochrome P450 enzymes (pooled human liver microsomes). Format: in vitro ADME. How it is done: A. […] Solutions of each test compound were separately prepared at concentrations of 20000, 6000, 2000, 600, 200, and 60 μM by serial dilution with DMSO:MeCN (50:50 v/v). The individual test compound solutions were then diluted 20-fold with DMSO:MeCN:deionized water (5:5:180 v/v/v) to concentrations of 1000, 300, 100, 30, 10, and 3 μM. […] The mixed inhibitor solutions were then diluted 20-fold with DMSO:MeCN:deionized water (5:5:180 v/v/v) to concentrations of 300, 100, 30, 10, 3, 1, 0.3, and 0.1 μM. The percent of organic solvent attributable to the test compound or inhibitor mixture in the final reaction mixture was 2% v/v. Pooled human liver microsome suspension (20 mg/mL) was diluted with phosphate buffer to obtain a 5 mg/mL suspension. A solution of NADPH was prepared in phosphate buffer at a concentration of 5 mM. Separate stock solutions of each substrate were prepared in DMSO:MeCN (50:50 v/v), mixed, and diluted in phosphate buffer to obtain a single solution containing each substrate at five times its experimentally determined Km concentration. […] A portion of the supernatant was analyzed by gradient reverse-phase HPLC with detection by electrospray ionization triple quadrupole mass spectrometry in the positive ion mode. Data was fitted to sigmoid dose-response curves and the inhibitory potency of each test compound was determined as its IC50 value.
In general terms: Microsomes from liver hold many membrane-bound enzymes, among them those of drug oxidation.

Chain of CYP3A4 (P08684 whole entry): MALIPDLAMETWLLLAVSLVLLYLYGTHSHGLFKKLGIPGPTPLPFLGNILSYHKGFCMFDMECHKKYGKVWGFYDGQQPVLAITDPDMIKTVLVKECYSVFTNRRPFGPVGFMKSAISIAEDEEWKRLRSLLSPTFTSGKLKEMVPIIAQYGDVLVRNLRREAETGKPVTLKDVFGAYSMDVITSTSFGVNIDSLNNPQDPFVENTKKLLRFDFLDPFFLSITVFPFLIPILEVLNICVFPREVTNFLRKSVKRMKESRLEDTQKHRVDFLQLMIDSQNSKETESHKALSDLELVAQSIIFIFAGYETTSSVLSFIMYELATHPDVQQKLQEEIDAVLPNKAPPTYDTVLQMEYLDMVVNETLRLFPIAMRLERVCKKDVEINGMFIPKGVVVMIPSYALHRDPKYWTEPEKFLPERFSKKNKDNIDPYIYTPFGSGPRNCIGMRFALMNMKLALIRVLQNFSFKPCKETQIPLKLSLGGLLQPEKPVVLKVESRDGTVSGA

By MIC is commonly meant the smallest concentration in the dilution series that meets the test's criterion for growth inhibition. As usually defined, the IC50 is the concentration needed to halve the response being measured. Regarding `OC(Cn1cnnn1)(c1ccc(F)cc1F)C(F)(F)c1ccc(-c2ccc(C(F)(F)F)cc2)cn1` (stereo not drawn) [Example 2, 2-(2,4-Difluorophenyl)-1,1-difluoro-3-(1H-tetrazol-1-yl)-1-(5-(4-(trifluoromethyl)phenyl)pyridin-2-yl) propan-2-ol], the MIC in the assay with C. albicans (48 h, about 50% growth reduction, approximately 48 h at 35 °C, read-out: Candida MIC) was no more than 0.016 µg/mL; in the assay on C. albicans (rating scale, read-out: Candida MIC Rating), less than 0.5 µg/mL. On CYP3A4, this compound gave a half-inhibitory concentration (IC50) greater than 60 µM.
